Data reported in publication PMC4791597 (Scientific Reports, 2016).

Molecular target: T1, PrP^C (cellular prion protein) (Mus musculus, UniProt P04925)
T1 construct: gene Prnp
Assay type: binding

T1 sequence (P04925 23-230 limits assumed): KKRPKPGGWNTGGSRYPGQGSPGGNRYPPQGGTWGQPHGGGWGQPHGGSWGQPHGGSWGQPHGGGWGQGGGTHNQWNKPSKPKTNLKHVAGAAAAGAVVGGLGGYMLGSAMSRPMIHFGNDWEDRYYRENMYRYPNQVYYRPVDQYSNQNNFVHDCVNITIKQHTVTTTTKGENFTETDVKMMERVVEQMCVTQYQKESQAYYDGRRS

**Q.** How did the Kd turn out when `C[n+]1ccc(C2=C3C=CC(=N3)C(c3cc[n+](C)cc3)=c3ccc4[n]3[Fe+][n]3c2ccc3C(c2cc[n+](C)cc2)=C2C=CC(=N2)C=4c2cc[n+](C)cc2)cc1` [Fe(III)-TMPyP] was run?
**A.** 1.21 µM
